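Cells were grown in 96-well plates and exposed to each compound for 48 hours at five concentrations; endpoints were interpolated linearly between bracketing concentrations, or set to the highest concentration if not reached. GI50 = concentration required for 50% inhibition of growth.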 Active and inactive are the calls of the source. Rule as the data show it: active = GI50 up to about 1.1 µM and inactive = higher.
Experiments:
Assay in all cases: inhibition of tumour cell growth, NCI panel, 48 h
SW-620 = tested on: SW-620
MDA-MB-435 = tested on: MDA-MB-435
SNB-75 = tested on: SNB-75
NCI-H226 = tested on: NCI-H226
NCI-H23 = tested on: NCI-H23
HCT-116 = tested on: HCT-116
HCT-15 = tested on: HCT-15
SF-539 = tested on: SF-539
NCI/ADR-RES = tested on: NCI/ADR-RES
SNB-19 = tested on: SNB-19
RPMI-8226 = tested on: RPMI-8226
MOLT-4 = tested on: MOLT-4
MCF7 = tested on: MCF7
TK-10 = tested on: TK-10
CAKI-1 = tested on: CAKI-1
LOX IMVI = tested on: LOX IMVI
HOP-62 = tested on: HOP-62
HOP-92 = tested on: HOP-92
NCI-H460 = tested on: NCI-H460
A498 = tested on: A498

| Compound | GI50 (SW-620) | GI50 (MDA-MB-435) | GI50 (SNB-75) | GI50 (NCI-H226) | GI50 (NCI-H23) | GI50 (HCT-116) | GI50 (HCT-15) [µM] | GI50 (SF-539) | GI50 (NCI/ADR-RES) | GI50 (SNB-19) | GI50 (RPMI-8226) | GI50 (MOLT-4) | GI50 (MCF7) | GI50 (TK-10) | GI50 (CAKI-1) | GI50 (LOX IMVI) | GI50 (HOP-62) | GI50 (HOP-92) | GI50 (NCI-H460) | GI50 (A498) |
| --- | --- | --- | --- | --- | --- | --- | --- | --- | --- | --- | --- | --- | --- | --- | --- | --- | --- | --- | --- | --- |
| CN1CN(c2ccccc2)C2(CCN(Cc3csc4ccccc34)CC2)C1=O | 13.3 µM (inactive) | 14.3 µM (inactive) | 23.7 µM (inactive) | 21 µM (inactive) | 6.44 µM (inactive) | 5.35 µM (inactive) | 14.5 | 15.1 µM (inactive) | 8.97 µM (inactive) | 38.4 µM (inactive) | 2.16 µM (inactive) | 4.32 µM (inactive) | 11.6 µM (inactive) | 12.9 µM (inactive) | 7.45 µM (inactive) | 11.8 µM (inactive) | 19.6 µM (inactive) |  |  |  |
| COc1ccc(-n2sc3ncc(C)cc3c2=O)cc1 | 33.8 µM (inactive) | 18.8 µM (inactive) |  | 26.2 µM (inactive) | 26.2 µM (inactive) | 18.3 µM (inactive) | 18.4 |  | 26.5 µM (inactive) | > 100 µM (inactive) | 26.2 µM (inactive) | 29.3 µM (inactive) | 23.7 µM (inactive) | 19.1 µM (inactive) |  | > 10 µM (inactive) | 18.2 µM (inactive) | 19.9 µM (inactive) | 86.3 µM (inactive) |  |
| [O-][S+]1c2ccccc2N=C(c2ccc3ccccc3c2)CC1c1ccccc1 (stereo not drawn) | 15.3 µM (inactive) |  | 17.1 µM (inactive) | 23.3 µM (inactive) | 17.9 µM (inactive) | 19.1 µM (inactive) | 16.4 | 18.4 µM (inactive) |  | 17.9 µM (inactive) | 29.6 µM (inactive) | 31 µM (inactive) |  | 22.8 µM (inactive) | 25.1 µM (inactive) | 21.1 µM (inactive) | 29.3 µM (inactive) | 35.6 µM (inactive) | 19.7 µM (inactive) | 17.4 µM (inactive) |
| Cc1ccccc1Nc1nc(NNC(=O)Cc2ccccc2)nc(NNC(=O)c2ccncc2)n1 |  |  | > 10 µM (inactive) |  |  |  | > 10 | > 10 µM (inactive) | > 10 µM (inactive) |  | > 10 µM (inactive) | > 10 µM (inactive) | > 10 µM (inactive) | > 10 µM (inactive) | > 10 µM (inactive) | > 10 µM (inactive) | > 10 µM (inactive) | > 10 µM (inactive) | > 10 µM (inactive) |  |
| Cc1cc(=O)oc2cc(OCC(O)COC(C)C)ccc12 (stereo not drawn) | 99.1 µM (inactive) |  | > 100 µM (inactive) |  | > 100 µM (inactive) | > 100 µM (inactive) | > 100 |  | > 100 µM (inactive) | > 100 µM (inactive) | > 100 µM (inactive) | > 100 µM (inactive) | > 100 µM (inactive) | > 100 µM (inactive) | > 100 µM (inactive) | 88.3 µM (inactive) | > 100 µM (inactive) | 80.9 µM (inactive) | > 100 µM (inactive) |  |
| CCN(CC)CCn1c(=O)c2cccnc2n2c3c(=O)n(C)c(=O)n(C)c3nc12 | 76.9 µM (inactive) | > 100 µM (inactive) | > 100 µM (inactive) | 95.1 µM (inactive) | > 100 µM (inactive) | 47.8 µM (inactive) | 11.6 | 85.1 µM (inactive) | > 100 µM (inactive) | > 100 µM (inactive) | > 100 µM (inactive) | 34.7 µM (inactive) | 45.1 µM (inactive) | 23.2 µM (inactive) | 67.9 µM (inactive) |  | > 100 µM (inactive) | > 100 µM (inactive) | 36.6 µM (inactive) |  |
| CC(=O)c1cccc(Nc2nc3ccccc3c3[nH]c4ccccc4c23)c1 | 4.81 µM (inactive) | 4.48 µM (inactive) |  |  | 9.38 µM (inactive) | 4.28 µM (inactive) | 3.94 | 4 µM (inactive) | 4.05 µM (inactive) | 16.2 µM (inactive) | 3.03 µM (inactive) |  | 0.403 µM (active) | 7.55 µM (inactive) | 3.8 µM (inactive) |  | 7.31 µM (inactive) | 2.87 µM (inactive) | 1.7 µM (inactive) |  |
| CCOC(=O)C(CO)c1nc2c([nH]c1=O)c(=O)n(C)c(=O)n2C (stereo not drawn) | > 100 µM (inactive) | > 100 µM (inactive) |  | > 100 µM (inactive) | > 100 µM (inactive) | > 100 µM (inactive) | > 100 | > 100 µM (inactive) | > 100 µM (inactive) | > 100 µM (inactive) | > 100 µM (inactive) |  | > 100 µM (inactive) | > 100 µM (inactive) | > 100 µM (inactive) | > 100 µM (inactive) | > 100 µM (inactive) |  | > 100 µM (inactive) | 0.608 µM (active) |
| CC12CCC([C@H](Nc3cc(C(F)(F)F)cc(C(F)(F)F)c3)C1=O)C2(C)C (stereo partly drawn) | > 100 µM (inactive) | > 100 µM (inactive) |  | > 100 µM (inactive) | > 100 µM (inactive) | > 100 µM (inactive) | > 100 | > 100 µM (inactive) | > 100 µM (inactive) | > 100 µM (inactive) | 0.158 µM (active) | > 100 µM (inactive) |  | > 100 µM (inactive) | > 100 µM (inactive) | > 100 µM (inactive) | 33.7 µM (inactive) |  |  |  |
| Cc1cn(CCCCOC(=O)NC(CCCNC(N)=O)C(=O)O)c(=O)[nH]c1=O (stereo not drawn) | > 100 µM (inactive) | > 100 µM (inactive) | > 100 µM (inactive) | > 100 µM (inactive) | > 100 µM (inactive) | > 100 µM (inactive) | > 100 | > 100 µM (inactive) | > 100 µM (inactive) | > 100 µM (inactive) | > 100 µM (inactive) | > 100 µM (inactive) | > 100 µM (inactive) | > 100 µM (inactive) | > 100 µM (inactive) | > 100 µM (inactive) | > 100 µM (inactive) | > 100 µM (inactive) | > 100 µM (inactive) |  |
| CN1CCN(C)C12C=CC=CC21CC1 | > 100 µM (inactive) |  | > 100 µM (inactive) | > 100 µM (inactive) | > 100 µM (inactive) | > 100 µM (inactive) | > 100 | > 100 µM (inactive) |  | > 100 µM (inactive) | > 100 µM (inactive) | > 100 µM (inactive) |  | > 100 µM (inactive) | > 100 µM (inactive) | > 100 µM (inactive) | > 100 µM (inactive) | 58.9 µM (inactive) | > 100 µM (inactive) | > 100 µM (inactive) |
| COc1cc2c3c(c1OCc1ccccc1)NCCC3NCC2 (stereo not drawn) | > 100 µM (inactive) |  | 43.7 µM (inactive) | > 100 µM (inactive) | > 100 µM (inactive) | > 100 µM (inactive) | > 100 | > 100 µM (inactive) |  | > 100 µM (inactive) | > 100 µM (inactive) | > 100 µM (inactive) |  | > 100 µM (inactive) | > 100 µM (inactive) | > 100 µM (inactive) | > 100 µM (inactive) | 86.1 µM (inactive) | > 100 µM (inactive) | > 100 µM (inactive) |
| CC/C=C/C(CC)C/C(C)=C\[C@]1(CC)C[C@H](CC)[C@H](CC(=O)O)OO1 (stereo partly drawn) | 0.352 µM (active) | 1.46 µM (inactive) |  | 1.89 µM (inactive) | 1.61 µM (inactive) | 0.41 µM (active) | 0.416 | 1.51 µM (inactive) | 0.453 µM (active) | 1.82 µM (inactive) | < 0.01 µM (active) | 0.151 µM (active) | 1.77 µM (inactive) |  | 0.259 µM (active) | 0.0315 µM (active) | 0.885 µM (active) |  | 0.171 µM (active) | 1.53 µM (inactive) |
| Cc1nc2c(cc1C(=O)N/N=C/c1ccc([N+](=O)[O-])cc1)c(=O)n(C)c(=O)n2C | > 100 µM (inactive) | > 100 µM (inactive) | > 100 µM (inactive) | 80.2 µM (inactive) | 41.8 µM (inactive) | 56.4 µM (inactive) | > 100 |  | > 100 µM (inactive) | 21.4 µM (inactive) | 96.6 µM (inactive) | > 100 µM (inactive) | > 100 µM (inactive) | 54.3 µM (inactive) | 51.8 µM (inactive) |  | 16.5 µM (inactive) |  | > 100 µM (inactive) |  |
| O=C1/C(=C/c2ccc3c(c2)OCO3)CCC1CN1CCOCC1 (stereo not drawn) | 2.07 µM (inactive) | 14.3 µM (inactive) | 14.6 µM (inactive) | 16.7 µM (inactive) | 8.83 µM (inactive) | 3.25 µM (inactive) | 2.94 | 13 µM (inactive) |  | 15.4 µM (inactive) | 0.436 µM (active) | 1.95 µM (inactive) | 2.1 µM (inactive) | 12.4 µM (inactive) | 3.25 µM (inactive) | 2.44 µM (inactive) | 16.3 µM (inactive) | 9.89 µM (inactive) | 17.4 µM (inactive) | 14.8 µM (inactive) |
| CC1=C(N(C)C)C(=O)c2nc3n(c2C1=O)CCC3OC(N)=O (stereo not drawn) | 18.7 µM (inactive) |  | 23.7 µM (inactive) | 19.4 µM (inactive) | 13.8 µM (inactive) | 15.4 µM (inactive) | 14.5 | 17.5 µM (inactive) |  | 17.5 µM (inactive) | 16.9 µM (inactive) | 13.1 µM (inactive) |  | 18.2 µM (inactive) | 18.5 µM (inactive) | 10.9 µM (inactive) | 17.6 µM (inactive) | 14.8 µM (inactive) | 15.6 µM (inactive) | 13.2 µM (inactive) |
| Cc1c2ccncc2c(C)c2c1[nH]c1ccc(Oc3ccccc3)cc12 | 2.67 µM (inactive) |  | 2.86 µM (inactive) | 14.3 µM (inactive) | 11.6 µM (inactive) | 2.56 µM (inactive) | 1.44 | 1.88 µM (inactive) |  | 10.6 µM (inactive) | 1.88 µM (inactive) | 2.15 µM (inactive) |  | 8.18 µM (inactive) | 3.61 µM (inactive) | 1.93 µM (inactive) | 1.96 µM (inactive) | 6.05 µM (inactive) | 1.95 µM (inactive) | 5.62 µM (inactive) |

Source: ChEMBL document CHEMBL1201862, “PubChem BioAssay data set” (2004)
